Results: ChEMBL document CHEMBL1149357, “Propionylpiperazines as human melanocortin-4 receptor ligands” (Bioorg Med Chem Lett, 2006)

Experiments:
Melanocortin receptor 4 [1] = molecular target: T1, Melanocortin receptor 4 (Homo sapiens, UniProt P32245); experiment: Displacement of [125I]NDP-MSH from human MC4R stably expressed in HEK293 cells; type: cell-based
[2] = molecular target: Melanocyte-stimulating hormone receptor (Homo sapiens, UniProt Q01726); experiment: Displacement of [125I]NDP-MSH from human MC1R stably expressed in HEK293 cells; type: cell-based
Melanocortin receptor 3 = Melanocortin receptor 3 (Homo sapiens, UniProt P41968); experiment: Displacement of [125I]NDP-MSH from human MC3R stably expressed in HEK293 cells; type: cell-based
Sequence of Melanocortin receptor 3 (P41968 whole entry): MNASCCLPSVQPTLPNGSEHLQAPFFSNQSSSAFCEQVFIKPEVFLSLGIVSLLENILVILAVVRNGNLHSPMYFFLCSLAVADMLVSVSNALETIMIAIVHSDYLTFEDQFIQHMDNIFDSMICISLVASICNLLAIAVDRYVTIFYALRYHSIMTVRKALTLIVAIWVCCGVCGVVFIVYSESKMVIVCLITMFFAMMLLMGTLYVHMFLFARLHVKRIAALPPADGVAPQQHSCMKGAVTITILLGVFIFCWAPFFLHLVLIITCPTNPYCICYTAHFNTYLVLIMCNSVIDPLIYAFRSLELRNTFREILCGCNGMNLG

Melanocortin receptor 5 = Melanocortin receptor 5 (Homo sapiens, UniProt P33032); experiment: Displacement of [125I]NDP-MSH from human MC5R stably expressed in HEK293 cells; type: cell-based
Sequence of Melanocortin receptor 5 (P33032 whole entry): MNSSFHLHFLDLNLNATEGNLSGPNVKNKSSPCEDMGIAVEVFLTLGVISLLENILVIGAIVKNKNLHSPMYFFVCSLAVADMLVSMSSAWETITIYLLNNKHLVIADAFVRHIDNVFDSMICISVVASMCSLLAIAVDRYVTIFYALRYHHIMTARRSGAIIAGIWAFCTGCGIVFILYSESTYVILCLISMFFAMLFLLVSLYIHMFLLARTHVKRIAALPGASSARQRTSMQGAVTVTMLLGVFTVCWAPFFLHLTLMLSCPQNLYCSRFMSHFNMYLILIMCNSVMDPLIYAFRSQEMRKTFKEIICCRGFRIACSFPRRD

Melanocortin receptor 4 [3] = molecular target: T1, Melanocortin receptor 4; experiment: Activity at MC4R assessed as inhibition of alpha MSH-stimulated cAMP production in HEK293 cells; type: functional, cell-based
[4] = Clearance in mouse at 5 mg/kg, iv; type: ADME, organism-based; design: dose 5 mg/kg, route intravenous; conditions: in vivo
[5] = Volume of distribution in mouse at 5 mg/kg, iv; type: ADME, organism-based; design: dose 5 mg/kg, route intravenous; conditions: in vivo, read-out: Vdss
[6] = Half life in mouse at 5 mg/kg, iv; type: ADME, organism-based; design: dose 5 mg/kg, route intravenous; conditions: in vivo
Mus musculus [7] = experiment: AUC in mouse at 5 mg/kg, iv; type: ADME, organism-based, Plasma; design: dose 5 mg/kg, route intravenous; conditions: in vivo
[8] = Drug level in mouse brain at 5 mg/kg, iv after 1 hr; type: ADME, organism-based; design: dose 5 mg/kg, route intravenous; conditions: read-out: Drug uptake
[9] = Drug level in mouse brain at 5 mg/kg, iv after 4 hrs; type: ADME, organism-based; design: dose 5 mg/kg, route intravenous; conditions: read-out: Drug uptake
[10] = Cmax in mouse at 10 mg/kg, po; type: ADME, organism-based; design: dose 10 mg/kg, route oral; conditions: in vivo
[11] = Tmax in mouse at 10 mg/kg, po; type: ADME, organism-based; design: dose 10 mg/kg, route oral; conditions: in vivo
Mus musculus [12] = experiment: AUC in mouse at 10 mg/kg, po; type: ADME, organism-based, Plasma; design: dose 10 mg/kg, route oral; conditions: in vivo
[13] = Bioavailability in mouse at 10 mg/kg, po; type: ADME, organism-based; conditions: in vivo
[14] = Lipophilicity, log D of the compound; type: physicochemical; conditions: octanol/water

T1 sequence (P32245 whole entry): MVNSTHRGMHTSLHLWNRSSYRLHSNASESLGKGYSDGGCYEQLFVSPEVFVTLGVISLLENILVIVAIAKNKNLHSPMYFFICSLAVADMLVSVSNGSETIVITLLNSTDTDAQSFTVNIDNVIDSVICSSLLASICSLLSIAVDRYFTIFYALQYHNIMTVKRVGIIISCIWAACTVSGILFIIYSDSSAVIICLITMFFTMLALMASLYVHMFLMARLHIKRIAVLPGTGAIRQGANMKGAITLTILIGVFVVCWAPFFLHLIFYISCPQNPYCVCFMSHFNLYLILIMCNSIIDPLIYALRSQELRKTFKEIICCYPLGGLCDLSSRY

| SMILES | Ki (Melanocortin receptor 4 [1]) | further results |
| --- | --- | --- |
| Cc1ccc(OCC(=O)N2CCN(c3ccc(C(F)(F)F)cc3[C@@H](N)CC(C)C)CC2)c(C)c1 | 4000 nM |  |
| Cc1ccc(N2CCN(C(=O)[C@H](C)Cc3ccc(Cl)cc3Cl)CC2)c([C@@H](N)CC(C)C)c1 | 8.8 nM |  |
| Cc1ccc(CC(C)C(=O)N2CCN(c3ccc(C(F)(F)F)cc3[C@@H](N)CC(C)C)CC2)cc1C (stereo not given in full) | 240 nM |  |
| CC(C)C[C@H](N)c1cc(C(F)(F)F)ccc1N1CCN(C(=O)CCC(N)=O)CC1 | > 10000 nM |  |
| CC(C)C[C@H](N)c1cc(C(F)(F)F)ccc1N1CCN(C(=O)C(C)Cc2ccc(Cl)cc2)CC1 (stereo not given in full) | 47 nM |  |
| CC(C)C[C@H](N)c1cc(C(F)(F)F)ccc1N1CCN(C(=O)COc2ccccc2Cl)CC1 | 4500 nM |  |
| CC(C)C[C@H](N)c1cc(C(F)(F)F)ccc1N1CCN(C(=O)CSc2ccc(Cl)cc2Cl)CC1 | 1500 nM |  |
| COc1cc(CC(C)C(=O)N2CCN(c3ccc(C(F)(F)F)cc3[C@@H](N)CC(C)C)CC2)ccc1Cl (stereo not given in full) | 230 nM |  |
| COc1ccc(OCC(=O)N2CCN(c3ccc(C(F)(F)F)cc3[C@@H](N)CC(C)C)CC2)cc1 | 3800 nM |  |
| Cc1ccc(N2CCN(C(=O)[C@H](C)Cc3ccc(Cl)cc3)CC2)c([C@@H](N)CC(C)C)c1 | 25 nM | Ki [2]: 3100 nM; Ki (Melanocortin receptor 3): 1300 nM; Ki (Melanocortin receptor 5): 1000 nM; IC50 (Melanocortin receptor 4 [3]): 560 nM; clearance [4]: 33.3 mL/min/kg; Vd [5]: 10.2 L/kg; half-life [6]: 3.5 h; AUC (Mus musculus [7]): 2560 ng·h/mL; concentration at 1 h [8]: 940 ng/g; concentration at 4 h [9]: 330 ng/g; Cmax [10]: 267 ng/mL; Tmax [11]: 0.5 h; AUC (Mus musculus [12]): 1760 ng·h/mL; bioavailability [13]: 34.4%; logD [14]: 3 |
| Cc1ccc(N2CCN(C(=O)[C@H](C)Cc3ccc(Cl)cc3C)CC2)c([C@@H](N)CC(C)C)c1 | 5.9 nM |  |
| COc1cc(Cl)ccc1CC(C)C(=O)N1CCN(c2ccc(Cl)cc2[C@@H](N)CC(C)C)CC1 (stereo not given in full) | 9.1 nM |  |
| CC(C)C[C@H](N)c1cc(C(F)(F)F)ccc1N1CCN(C(=O)COc2cccc(Cl)c2)CC1 | 2600 nM |  |
| CC(C)C[C@H](N)c1cc(F)ccc1N1CCN(C(=O)C(C)Cc2ccc(Cl)cc2)CC1 (stereo not given in full) | 390 nM |  |
| CC(C)C[C@H](N)c1cc(C(F)(F)F)ccc1N1CCN(C(=O)COc2ccc(Cl)c(Cl)c2)CC1 | 2500 nM |  |
| CC(C)C[C@H](N)c1cc(C(F)(F)F)ccc1N1CCN(C(=O)COc2cccc3ccccc23)CC1 | 2600 nM |  |
| CC(C)C[C@H](N)c1cc(C(F)(F)F)ccc1N1CCN(C(=O)CC(C)C(=O)c2ccc(Cl)cc2)CC1 (stereo not given in full) | 1100 nM |  |
| CC(C)C[C@H](N)c1cc(Cl)ccc1N1CCN(C(=O)C(C)Cc2ccc(Cl)cc2)CC1 (stereo not given in full) | 67 nM |  |
| CC(C)C[C@H](N)c1ccccc1N1CCN(C(=O)[C@H](C)Cc2ccc(Cl)cc2)CC1 | 80 nM |  |
| Cc1ccc(OCC(=O)N2CCN(c3ccc(C(F)(F)F)cc3[C@@H](N)CC(C)C)CC2)cc1 | 4400 nM |  |

| SMILES | Ki (Melanocortin receptor 4 [1]) | further results |
| --- | --- | --- |
| COc1cccc(CC(C)C(=O)N2CCN(c3ccc(C(F)(F)F)cc3[C@@H](N)CC(C)C)CC2)c1 (stereo not given in full) | 3100 nM |  |
| CC(C)C[C@H](N)c1cc(C(F)(F)F)ccc1N1CCN(C(=O)C(C)Cc2ccc(Cl)cc2O)CC1 (stereo not given in full) | 36 nM |  |
| COc1ccc(CC(C)C(=O)N2CCN(c3ccc(C(F)(F)F)cc3[C@@H](N)CC(C)C)CC2)cc1F (stereo not given in full) | 200 nM |  |
| CC(C)C[C@H](N)c1cc(C(F)(F)F)ccc1N1CCN(C(=O)[C@H](C)Cc2ccc(Cl)cc2Cl)CC1 | 26 nM |  |
| COc1cc(Cl)ccc1C[C@H](C)C(=O)N1CCN(c2ccc(C(F)(F)F)cc2[C@@H](N)CC(C)C)CC1 | 31 nM |  |
| CC(C)C[C@H](N)c1cc(C(F)(F)F)ccc1N1CCN(C(=O)COc2ccc3ccccc3c2)CC1 | 2000 nM |  |
| COc1ccc(CC(C)C(=O)N2CCN(c3ccc(C(F)(F)F)cc3[C@@H](N)CC(C)C)CC2)cc1 (stereo not given in full) | 120 nM |  |
| CC(C)C[C@H](N)c1cc(C(F)(F)F)ccc1N1CCN(C(=O)COc2ccc(O)cc2)CC1 | 4600 nM |  |
| CC(C)C[C@H](N)c1cc(C(F)(F)F)ccc1N1CCN(C(=O)CCCC2CCCCC2)CC1 | 4100 nM |  |
| CC(C)C[C@H](N)c1cc(C(F)(F)F)ccc1N1CCN(C(=O)COc2ccc(Cl)cc2Cl)CC1 | 4200 nM |  |
| CC(C)C[C@H](N)c1cc(C(F)(F)F)ccc1N1CCN(C(=O)C(C)Cc2cccc(Cl)c2)CC1 (stereo not given in full) | 920 nM |  |
| CC(C)C[C@H](N)c1cc(C(F)(F)F)ccc1N1CCN(C(=O)CCC(=O)N(C)C)CC1 | > 10000 nM |  |
| CC(C)C[C@H](N)c1ccccc1N1CCN(C(=O)[C@H](C)Cc2ccc(Cl)cc2F)CC1 | 67 nM |  |
| CC(C)C[C@H](N)c1cc(C(F)(F)F)ccc1N1CCN(C(=O)COc2ccc([N+](=O)[O-])cc2)CC1 | 3100 nM |  |
| CC(C)C[C@H](N)c1cc(C(F)(F)F)ccc1N1CCN(C(=O)CCC2CCCCC2)CC1 | 5700 nM |  |
| CC(C)C[C@H](N)c1cc(C(F)(F)F)ccc1N1CCN(C(=O)COc2ccc(Cl)cc2)CC1 | 2900 nM |  |
| Cc1cc(Cl)ccc1CC(C)C(=O)N1CCN(c2ccc(C(F)(F)F)cc2[C@@H](N)CC(C)C)CC1 (stereo not given in full) | 38 nM |  |
| CC(C)C[C@H](N)c1cc(C(F)(F)F)ccc1N1CCN(C(=O)[C@H](C)Cc2ccc(Cl)cc2)CC1 | 31 nM |  |
| CC(C)C[C@H](N)c1cc(C(F)(F)F)ccc1N1CCN(C(=O)[C@@H](C)Cc2ccc(Cl)cc2Cl)CC1 | 140 nM |  |
| CCOc1cccc(CC(C)C(=O)N2CCN(c3ccc(C(F)(F)F)cc3[C@@H](N)CC(C)C)CC2)c1 (stereo not given in full) | 2200 nM |  |

| SMILES | Ki (Melanocortin receptor 4 [1]) | further results |
| --- | --- | --- |
| CC(C)C[C@H](N)c1cc(C(F)(F)F)ccc1N1CCN(C(=O)CNc2ccccc2)CC1 | 3600 nM |  |
| CC(C)C[C@H](N)c1ccccc1N1CCN(C(=O)[C@H](C)Cc2ccc(Cl)cc2Cl)CC1 | 16 nM |  |
| Cc1cc(CC(C)C(=O)N2CCN(c3ccc(C(F)(F)F)cc3[C@@H](N)CC(C)C)CC2)ccc1Cl (stereo not given in full) | 71 nM |  |
| Cc1cc(Cl)ccc1C[C@@H](C)C(=O)N1CCN(c2ccccc2[C@H](N)CC(C)C)CC1 | 1700 nM |  |
| CC(C)C[C@H](N)c1cc(C(F)(F)F)ccc1N1CCN(C(=O)C(C)Cc2ccc(Cl)c(Cl)c2)CC1 (stereo in doubt; 8q) | 1600 nM |  |
| COc1cc(Cl)ccc1C[C@@H](C)C(=O)N1CCN(c2ccc(C(F)(F)F)cc2[C@@H](N)CC(C)C)CC1 | 6.5 nM |  |
| Cc1ccc(CC(C)C(=O)N2CCN(c3ccc(C(F)(F)F)cc3[C@@H](N)CC(C)C)CC2)c(C)c1 (stereo not given in full) | 92 nM |  |
| CC(C)C[C@H](N)c1cc(C(F)(F)F)ccc1N1CCN(C(=O)Cc2ccc(Cl)cc2Cl)CC1 | 2800 nM |  |
| CC(C)C[C@H](N)c1cc(C(F)(F)F)ccc1N1CCN(C(=O)Cn2cnc3ccccc32)CC1 | 2100 nM |  |
| COc1cc(Cl)ccc1CC(C)C(=O)N1CCN(c2ccc(C(F)(F)F)cc2[C@@H](N)CC(C)C)CC1 (stereo not given in full) | 14 nM | Activity [2]: 23%; Ki (Melanocortin receptor 3): 320 nM; Ki (Melanocortin receptor 5): 86 nM; IC50 (Melanocortin receptor 4 [3]): 1700 nM; clearance [4]: 62.3 mL/min/kg; Vd [5]: 10.3 L/kg; half-life [6]: 1.9 h; AUC (Mus musculus [7]): 1450 ng·h/mL; concentration at 1 h [8]: 735 ng/g; concentration at 4 h [9]: 122 ng/g; Cmax [10]: 99 ng/mL; Tmax [11]: 0.25 h; AUC (Mus musculus [12]): 249 ng·h/mL; bioavailability [13]: 8.6%; logD [14]: > 4 |
| COc1cc(Cl)ccc1C[C@@H](C)C(=O)N1CCN(c2ccc(C)cc2[C@@H](N)CC(C)C)CC1 | 8.1 nM |  |
| CC(C)C[C@H](N)c1cc(C(F)(F)F)ccc1N1CCN(C(=O)COc2cccc(Cl)c2Cl)CC1 | 2500 nM |  |
| CC(C)C[C@H](N)c1cc(C(F)(F)F)ccc1N1CCN(C(=O)CCC(=O)c2ccc(Cl)cc2)CC1 | 820 nM |  |
| COc1ccc(CC(C)C(=O)N2CCN(c3ccc(Cl)cc3[C@@H](N)CC(C)C)CC2)cc1 (stereo not given in full) | 160 nM |  |
| CC(C)C[C@H](N)c1cc(C(F)(F)F)ccc1N1CCN(C(=O)COc2ccccc2)CC1 | > 10000 nM |  |
| Cc1ccc(N2CCN(C(=O)[C@H](C)Cc3ccc(Cl)cc3F)CC2)c([C@@H](N)CC(C)C)c1 | 20 nM |  |
| CC(C)C[C@H](N)c1cc(C(F)(F)F)ccc1N1CCN(C(=O)C(C)Cc2ccc(Cl)c(Cl)c2)CC1 (stereo in doubt; 8j) | 120 nM |  |
| CC(C)C[C@H](N)c1cc(C(F)(F)F)ccc1N1CCN(C(=O)C(C)Cc2ccc(Cl)cc2F)CC1 (stereo not given in full) | 60 nM |  |
| Cc1cc(Cl)ccc1C[C@@H](C)C(=O)N1CCN(c2ccccc2[C@@H](N)CC(C)C)CC1 | 12 nM |  |
| CC(C)C[C@H](N)c1cc(C(F)(F)F)ccc1N1CCN(C(=O)CCNC2CCCCC2)CC1 | 4800 nM |  |
